This passage reports T/C results from PubChem BioAssay AID330 (DTP/NCI, 2004).

The subject of the assay is P388 leukemia ip, CD2F1 mice, survival T/C. The experiment in a line: NCI In Vivo Anticancer Drug Screen. Data for tumor model P388 Leukemia (intraperitoneal) in CD2F1 (CDF1) mice. As to conditions: endpoint: median survival time, higher = longer survival. The method in brief: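 Mice carrying the transplanted tumor received test compound or vehicle. Survival was recorded in each group, and the value is the treated-group measurement divided by that of the vehicle-treated control group.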

[1] abbreviates: dose: 12.5 mg/kg/injection, schedule: Q01DX009 (ip), vehicle: saline with Tween-80.
The mark [2] stands for this setting: dose: 25.0 mg/kg/injection, schedule: Q01DX009 (ip), vehicle: saline with Tween-80.
Where [3] appears, read: dose: 50.0 mg/kg/injection, schedule: Q01DX009 (ip), vehicle: saline with Tween-80.
Setting [4] is: dose: 50.0 mg/kg/injection, schedule: Q01DX009 (ip), vehicle: suspension in saline.
The mark [5] stands for this setting: dose: 100.0 mg/kg/injection, schedule: Q01DX009 (ip), vehicle: suspension in saline.
[6] abbreviates: dose: 50.0 mg/kg/injection, schedule: Q01DX005 (ip), vehicle: saline with Tween-80.
Where [7] appears, read: dose: 100.0 mg/kg/injection, schedule: Q01DX005 (ip), vehicle: saline with Tween-80.
Setting [8] is: dose: 50.0 mg/kg/injection, schedule: Q01DX009 (ip), vehicle: saline.
[9] abbreviates: dose: 100.0 mg/kg/injection, schedule: Q01DX009 (ip), vehicle: saline.
[10] abbreviates: dose: 200.0 mg/kg/injection, schedule: Q01DX009 (ip), vehicle: saline.
The mark [11] stands for this setting: dose: 3.13 mg/kg/injection, schedule: Q01DX009 (ip), vehicle: saline with Tween-80.
Setting [12] is: dose: 200.0 mg/kg/injection, schedule: Q01DX005 (ip), vehicle: saline with Tween-80.
Where [13] appears, read: dose: 25.0 mg/kg/injection, schedule: Q01DX009 (ip), vehicle: saline.

Several values for one entry are separate records, joined by “and”; a condition that tells them apart may be missing. Identical values can stand only once. Inconclusive results and toxic doses are left out.

In the case of `CCCCc1ccc(N(C)C)cc1`, the T/C runs as follows: under setting [1], 101 % of control; under setting [2], 110 % of control; under setting [3], 110 % of control.

Take `N#CC(C(O)c1ccccc1)N1CCOCC1` (stereo not given): the T/C was 102 % of control under setting [4]; 109 % of control under setting [5]; 94 % of control (dose: 200.0 mg/kg/injection, schedule: Q01DX009 (ip), vehicle: suspension in saline).

With `O=C1NC(O)c2cccc(F)c2O1` (stereo not given), the T/C runs as follows: under setting [6], 100 % of control; under setting [7], 102 % of control.

With `O=C(Oc1ccc(Cl)cc1Cl)C(Cl)=C(Cl)Cl`, the T/C by setting is: under setting [8], 97 % of control; under setting [9], 111 % of control; under setting [10], 101 % of control.

Regarding `CC(O)C(NC(=O)OC(C)(C)C)C(=O)ON1C(=O)CCC1=O` (stereo not given), the T/C was 101 % of control under setting [3]; 101 % of control (dose: 100.0 mg/kg/injection, schedule: Q01DX009 (ip), vehicle: saline with Tween-80); 101 % of control (dose: 200.0 mg/kg/injection, schedule: Q01DX009 (ip), vehicle: saline with Tween-80).

For `C/C=C1/C[N+]2(C)CCc3c([nH]c4ccccc34)C2CC1C(CO)C(=O)OC` (stereo not given), the T/C under setting [1] is 96 % of control, the T/C under setting [2] is 104 % of control and the T/C under setting [3] is 98 % of control.

In the case of `Cc1cc2nc(Nc3nc(C)c(C)c(=O)[nH]3)[nH]c2cc1C`, the T/C runs as follows: under setting [8], 108 % of control; under setting [9], 102 % of control; under setting [10], 90 % of control.

For the molecule `COc1ccc(/C=N\NC(=O)CNC(=O)Nc2cccc(C(F)(F)F)c2)cc1OC`, the T/C under setting [11] is 112 % of control; the T/C (dose: 6.25 mg/kg/injection, schedule: Q01DX009 (ip), vehicle: saline with Tween-80) is 108 % of control; the T/C under setting [1] is 91 % of control.

Turning to `COC(=O)OC(C#N)c1cccc([N+](=O)[O-])c1` (stereo not given), the T/C was 101 % of control (dose: 25.0 mg/kg/injection, schedule: Q01DX009 (ip), vehicle: suspension in saline); 98 % of control under setting [4]; 94 % of control under setting [9]; 104 % of control under setting [5].

For `CC1=NN(c2cccc(S(=O)(=O)O)c2)C(=O)C1N=Nc1cc(Cl)cc(S(=O)(=O)O)c1O.CC1=NN(c2cccc(S(=O)(=O)O)c2)C(=O)C1N=Nc1cc(Cl)cc(S(=O)(=O)O)c1O.[Cr]` (stereo not given), the T/C is 111 % of control and 119 % of control under setting [8]; 120 % of control and 122 % of control under setting [9]; 123 % of control under setting [10]; 122 % of control (dose: 400.0 mg/kg/injection, schedule: Q01DX009 (ip), vehicle: saline).

On to `COc1cccc2c1OC(=O)NC2O` (stereo not given), for which the T/C (dose: 25.0 mg/kg/injection, schedule: Q01DX005 (ip), vehicle: distilled water + Tween-80) was 103 % of control; the T/C (dose: 50.0 mg/kg/injection, schedule: Q01DX005 (ip), vehicle: distilled water + Tween-80) is 107 % of control; the T/C under setting [6] was 102 % of control; the T/C (dose: 100.0 mg/kg/injection, schedule: Q01DX005 (ip), vehicle: distilled water + Tween-80) was 121 % of control; the T/C under setting [7] is 122 % of control; the T/C (dose: 200.0 mg/kg/injection, schedule: Q01DX005 (ip), vehicle: distilled water + Tween-80) is 110 % of control. The T/C under setting [12] is 112 % of control.

For `O=C1C=C(NCCNCCO)C(=O)c2ccccc21`, the T/C by setting is: (dose: 6.25 mg/kg/injection, schedule: Q01DX009 (ip), vehicle: distilled water + Tween-80) 96 % of control; (dose: 12.5 mg/kg/injection, schedule: Q01DX009 (ip), vehicle: distilled water + Tween-80) 98 % of control and 95 % of control; (dose: 25.0 mg/kg/injection, schedule: Q01DX009 (ip), vehicle: distilled water + Tween-80) 109 % of control and 95 % of control; (dose: 50.0 mg/kg/injection, schedule: Q01DX009 (ip), vehicle: distilled water + Tween-80) 111 % of control and 94 % of control; (dose: 100.0 mg/kg/injection, schedule: Q01DX009 (ip), vehicle: distilled water + Tween-80) 88 % of control and 97 % of control.

As for `Cc1ccc(S(C)(=N)=O)c(N)c1` (stereo not given), the T/C runs as follows: (dose: 50.0 mg/kg/injection, schedule: Q01DX005 (ip), vehicle: acetone) 99 % of control; (dose: 100.0 mg/kg/injection, schedule: Q01DX005 (ip), vehicle: acetone) 99 % of control; (dose: 200.0 mg/kg/injection, schedule: Q01DX005 (ip), vehicle: acetone) 100 % of control.

As for `O=C(O)CCC(=O)NC1C(NNC(=O)c2cccnc2)OC(CO)C(O)C1O` (stereo not given), the T/C is 101 % of control under setting [6], 95 % of control under setting [7] and 101 % of control under setting [12].

As for `O=C(Nc1ccc(Cl)cc1)Nc1nnc2ncc3c(n12)CCCCCCCCCC3`, the T/C (dose: 60.0 mg/kg/injection, schedule: Q01DX005 (ip), vehicle: saline with Tween-80) was 102 % of control and the T/C (dose: 120.0 mg/kg/injection, schedule: Q01DX005 (ip), vehicle: saline with Tween-80) was 87 % of control.

With `N#CC[n+]1ccc2ccccc2c1`, the T/C by setting is: (dose: 12.5 mg/kg/injection, schedule: Q01DX009 (ip), vehicle: saline) 105 % of control; under setting [13], 99 % of control; under setting [8], 101 % of control.

Consider `COC1(OC)C(C#N)(C#N)C2(C(=O)Nc3ccccc32)C1(OC)OC` (stereo not given), for which the T/C (dose: 60.0 mg/kg/injection, schedule: Q01DX005 (ip), vehicle: Klucel (hydroxypropylcellulose) (HPC)) was 97 % of control; the T/C (dose: 120.0 mg/kg/injection, schedule: Q01DX005 (ip), vehicle: Klucel (hydroxypropylcellulose) (HPC)) is 101 % of control; the T/C (dose: 240.0 mg/kg/injection, schedule: Q01DX005 (ip), vehicle: Klucel (hydroxypropylcellulose) (HPC)) was 103 % of control.

As for `ClCSc1nc2ccccc2o1`, the T/C (dose: 50.0 mg/kg/injection, schedule: Q04DX002 (ip), vehicle: saline with Tween-80) was 102 % of control; the T/C (dose: 100.0 mg/kg/injection, schedule: Q04DX002 (ip), vehicle: saline with Tween-80) was 102 % of control; the T/C (dose: 200.0 mg/kg/injection, schedule: Q04DX002 (ip), vehicle: saline with Tween-80) was 107 % of control.

Take `C1CNCCSCCCSCCNC1`: the T/C is, setting by setting: under setting [13], 100 % of control; under setting [8], 98 % of control; under setting [9], 89 % of control; under setting [10], 87 % of control.

As to `CO/N=C(\C(O)C(C)O)C(OC)C1Cc2cc3cc(OC4CC(OC(C)=O)C(OC5CC(O)C(OC)C(C)O5)C(C)O4)cc(O)c3c(O)c2C(=O)C1OC1CC(OC2CC(OC3CC(C)(O)C(OC(=O)C(C)C)C(C)O3)C(O)C(C)O2)C(O)C(C)O1` (stereo not given), the T/C by setting is: (dose: 0.13 mg/kg/injection, schedule: Q01DX005 (ip), vehicle: water) 116 % of control; (dose: 0.25 mg/kg/injection, schedule: Q01DX005 (ip), vehicle: water) 116 % of control and 124 % of control; (dose: 1.0 mg/kg/injection, schedule: Q01DX005 (ip), vehicle: water) 160 % of control; (dose: 2.0 mg/kg/injection, schedule: Q01DX005 (ip), vehicle: water) 163 % of control.

As for `O=C1c2ccccc2C(=O)C(Cl)C1Cl` (stereo not given), the T/C is 100 % of control (dose: 1.56 mg/kg/injection, schedule: Q01DX009 (ip), vehicle: saline with Tween-80) and 101 % of control under setting [11].

`CCOC(=S)/N=C1/SCS(=O)(=O)N1c1ccccc1`: the T/C reads like this: (dose: 50.0 mg/kg/injection, schedule: Q04DX003 (ip), vehicle: saline with Tween-80) 99 % of control; (dose: 100.0 mg/kg/injection, schedule: Q04DX003 (ip), vehicle: saline with Tween-80) 95 % of control; (dose: 200.0 mg/kg/injection, schedule: Q04DX003 (ip), vehicle: saline with Tween-80) 98 % of control.

For `CC1CC2=C(C(=O)c3ccccc3C2=O)C(C)O1` (stereo not given), the T/C (dose: 60.0 mg/kg/injection, schedule: Q01DX005 (ip), vehicle: saline) is 106 % of control; the T/C (dose: 120.0 mg/kg/injection, schedule: Q01DX005 (ip), vehicle: saline) is 92 % of control; the T/C (dose: 240.0 mg/kg/injection, schedule: Q01DX005 (ip), vehicle: saline) is 96 % of control.

`O=NNc1ccc2cc3ccc(NN=O)cc3nc2c1`: the T/C reads like this: (dose: 25.0 mg/kg/injection, schedule: Q01DX009 (ip), vehicle: water) 122 % of control; (dose: 50.0 mg/kg/injection, schedule: Q01DX009 (ip), vehicle: water) 106 % of control and 97 % of control.

`CN(CCc1ccccn1)c1ccc2c(c1)Cc1ccccc1-2`: the T/C runs as follows: (dose: 50.0 mg/kg/injection, schedule: Q01DX005 (ip), vehicle: Klucel (hydroxypropylcellulose) (HPC)) 98 % of control; (dose: 100.0 mg/kg/injection, schedule: Q01DX005 (ip), vehicle: Klucel (hydroxypropylcellulose) (HPC)) 93 % of control.
